# Entries after “also recorded” stand apart in the source; their conditions may differ.
# Assays:
# [1] = test system: Human white preadipocyte (HWP) cells; test: Glucose uptake assay, human white preadipocyte cells; format: cell-based
# Experimental: (§1) FIGS. 5-8 show results for glucose update assays in Human white preadipocyte (HWP) cells (Promocell, cat. No. C-12735) when treated with compound I-11 (FIG. 5), compound I-7 (FIG. 6), MK-8722 (FIG. 7), and PF-06409577 (FIG. 8). HWP cells (subcutaneous upper arm of obese patient) were starved for 3 hours in DMEM without FBS, treated with the components noted above in […] DMEM without FBS/glucose for 1 hour, and glucose uptake was detected using a glucose uptake kit (Promega). […] The bars show (from left to right) concentrations of 100 μM, 33 μM, 11 μM, 3.7 μM, 1.23 μM, 0.41 μM, 0.14 μM, 0.045 μM, 0.015 μM, 0.005 μM, 0 μM, and insulin.
# as §1, with “9-12” for “5-8”, “9),” for “5),”, “10),” for “6),”, “11),” for “7),”, “12).” for “8).”, “(abdomen cells)” for “(subcutaneous upper arm of obese patient)”
# Human skeletal myoblasts were obtained (Thermofisher; BYU) and cultured in DMEM/F12 medium with 10% FBS. For differentiation, 2% horse serum low glucose DMEM medium was employed for 72 hours. Human cardiomyocytes cells (HCM cells; Promocell) were cultured in myocyte growth medium (Promocell). Human preadipocyte HWP-c cells (Promocell) were obtained from upper arm of diabetic II donor. Human preadipocyte HWP-c cells (Promocell) were obtained from abdomen of diabetic II donor. For differentiating human preadipocytes, cells were cultured in preadipocyte growth medium to total confluency stage. The growth medium was replaced with preadipocyte differentiation medium for 72 hours, then changed to PromoCell adipocyte nutrition medium to complete the differentiation process. THLE-2 cells were cultured in BEGM from Lonza/Clonetics Corporation, Walkersville, MD 21793 (BEGM Bullet Kit; CC3170). HepG2, L6 and C2Cl2 cells were cultured in EMEM medium.
# After differentiation myoblasts, preadipocyte cells were starved by removing the medium and adding 100 μL DMEM without serum. The medium was then replaced with 100 μL DMEM±1 μM insulin at indicated concentration of representative compounds without serum or glucose. The cells were then incubated for 1 hour at 37° C. in 5% CO2. The cells were then removed from the medium and 50 μL of 0.1 mM 2DG in PBS was added. Cells were incubated for 30 minutes at 25° C. 25 μL of Stop Buffer was added and samples were mixed. 25 μL of Neutralization Buffer was then added and mixed. 100 μL of 2DG6P Detection Reagent was then added and mixed. Samples were then incubated for 1 hour at 25° C. Luminescence was then recorded with 0.3-1 second integration on a luminometer.
# [2] = PK oral bioavailability experiment, rat; format: in vivo, male Wistar rat
# Experimental: A total of 18 male Wistar rats were allotted for the study. Animals were allotted in to 2 groups of 9 rat per each group. In each group, first set of three animals were used for PK study, next set of three and followed by other set of three animals were used for 0.5 h and 1 h brain, CSF, and blood collection purpose for intravenous and oral groups, respectively. On day of dosing all the animals were fasted overnight.
# Approximately 0.3 mL of blood sample from each animal was collected via jugular vein at predetermined time points at 0.083 (only IV), 0.25, 0.5, 1, 2, 4, 6, 8 and 24 h intervals in pre-labeled Eppendorf tubes containing anticoagulant K2EDTA (20 μL per mL of blood). Blood sample was centrifuged at 5000 rpm for 10 min under refrigeration (2-4° C.) to obtain plasma. For brain and CSF uptake study, after 0.5 h and 1 h CSF and whole brain was withdrawn, and brain tissue was homogenized as a terminal sampling. Blood samples were centrifuged under refrigeration (2-4° C.) within 0.5 h to obtain plasma. The separated plasma samples were collected in pre labeled tubes within 60 min of separation and stored at −20° C. up to 24 h. Post 24 h sample collection, all plasma samples were transferred to deep freezer custodian to store below or at −70° C. till shipment.
# Brain tissues were blotted and dried and then transferred to 15 mL falcon tubes. Initially all tissue samples were stored at −20±3° C. Later, all brain tissue samples were homogenized with PBS at 1:4 ratio and the Brain homogenate was transferred to Deep freezer (−70±10° C.) and stored until bioanalysis.
# The PK parameters were evaluated using Phoenix WinNonlin® Ent-Version 8.3 by non-compartmental analysis.
structure (smiles),measurement,setting,value
"O=c1[nH]c(-c2c[nH]c3cc(F)c(-c4ccc(C5(O)CCC5)cc4)c(F)c23)no1 [Compound I-11, 3-(4,6-difluoro-5-(4-(1-hydroxycyclobutyl)phenyl)-1H-indol-3-yl)-1,2,4-oxadiazol-5(4H)-one]",dose dependence of glucose uptake (printed: activates insulin),"[1]; HWP cells, subcutaneous upper arm of obese patient, 100 μM to 0.005 μM, 1 hour",dose dependent manner
same,glucose uptake,"[1]; human adipocyte cells / HWP-c cells, donor site not stated",induced glucose uptake; also recorded: dosage-dependent manner
same,systemic exposure following oral administration,[2]; 5 mg/kg oral,low systemic exposure
same,concentrations in brain tissue,[2]; 0.5 h and 1 h,no concentrations in brain tissue
same,bioavailability,"[2]; male, Wistar, plasma, 5 mg/kg oral vs 1 mg/kg intravenous",6%
